# Data reported in patent US20260285850A1, “SUBSTITUTED OXAZOLIDINONES AND IMIDAZOLINONES AS HERBICIDES” (FMC CORPORATION, priority 2023, published 2026).
# Legend:
# Format in all cases: in vivo
# rice (Oryza sativa) = experiment: Test B flooded paddy test, visual plant response rating 0-100; conditions: 250 g ai/ha, Flood, applied to paddy water, evaluated after 13 days
# Summary of the method: (§1)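 2-leaf plants; flood 3 cm over soil; compound dosed into paddy water; depth kept constant; greenhouse 13 d; visual scoring vs controls. Dash = no result.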
# [1] = tested on: sedge, umbrella (small-flower umbrella sedge, Cyperus difformis); experiment: as above; conditions: 250 g ai/ha, Flood, applied to paddy water, evaluated after 13 days
# Summary of the method: as §1
# [2] = tested on: ducksalad (Heteranthera limosa); experiment: as above; conditions: 250 g ai/ha, Flood, applied to paddy water, evaluated after 13 days
# Summary of the method: as §1
# [3] = tested on: barnyardgrass (Echinochloa crusgalli); experiment: as above; conditions: 250 g ai/ha, Flood, applied to paddy water, evaluated after 13 days
# Summary of the method: as §1
# kochia (Bassia scoparia) [4] = experiment: Test A preemergence soil spray, visual injury rating 0-100; conditions: 10 days, 0 = no effect, 100 = complete control
# Summary of the method: (§2)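 Preemergence directed soil spray or postemergence spray (2-10 cm, 1-2 leaf); loam/sand mix; compound in non-phytotoxic solvent + surfactant. Greenhouse, 10 d. Visual injury vs untreated, 0 = none, 100 = complete control.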
# [5] = tested on: ragweed (common ragweed, Ambrosia artemisiifolia); experiment: as above; conditions: 1000 g ai/ha, 10 days, 0 = no effect, 100 = complete control
# Summary of the method: as §2
# [6] = tested on: green foxtail (Setaria viridis); experiment: as above; conditions: 10 days, 0 = no effect, 100 = complete control
# Summary of the method: as §2
# [7] = tested on: ryegrass, Italian (italian ryegrass, Lolium multiflorum); experiment: as above; conditions: 10 days, 0 = no effect, 100 = complete control
# Summary of the method: as §2
# [8] = tested on: barnyardgrass (Echinochloa crus-galli); experiment: as above; conditions: 10 days, 0 = no effect, 100 = complete control
# Summary of the method: as §2
# [9] = tested on: blackgrass (Alopecurus myosuroides); experiment: as above; conditions: 10 days, 0 = no effect, 100 = complete control
# Summary of the method: as §2
# [10] = tested on: palmer (palmer amaranth, palmer pigweed, Amaranthus palmeri); experiment: as above; conditions: 10 days, 0 = no effect, 100 = complete control
# Summary of the method: as §2
# kochia (Bassia scoparia) [11] = experiment: Test A postemergence application, visual injury rating 0-100; conditions: Postemergence, 10 days; for Kochia plant response rating (0 to 100 scale): 0 is no effect, 100 is complete control
# Summary of the method: as §2
# [12] = tested on: galium (catchweed bedstraw, Galium aparine); experiment: as above; conditions: Postemergence, 10 days; for Galium plant response rating (0 to 100 scale): 0 is no effect, 100 is complete control
# Summary of the method: as §2
# [13] = tested on: horseweed (Erigeron canadensis); experiment: as above; conditions: Postemergence, 10 days; for Horseweed plant response rating (0 to 100 scale): 0 is no effect, 100 is complete control
# Summary of the method: as §2
# [14] = tested on: green foxtail (Setaria viridis); experiment: as above; conditions: Postemergence, 10 days; for Foxtail, Green plant response rating (0 to 100 scale): 0 is no effect, 100 is complete control
# Summary of the method: as §2
# [15] = tested on: barnyardgrass (Echinochloa crus-galli); experiment: as above; conditions: Postemergence, 10 days; for Barnyardgrass plant response rating (0 to 100 scale): 0 is no effect, 100 is complete control
# Summary of the method: as §2
# [16] = tested on: blackgrass (Alopecurus myosuroides); experiment: as above; conditions: Postemergence, 10 days; for Blackgrass plant response rating (0 to 100 scale): 0 is no effect, 100 is complete control
# Summary of the method: as §2
# corn (Zea mays) [17] = experiment: Test A preemergence soil spray, visual injury rating 0-100; conditions: 10 days, 0 = no effect, 100 = complete control
# Summary of the method: as §2
# [18] = tested on: oat, wild (wild oat, Avena fatua); experiment: as above; conditions: 10 days, 0 = no effect, 100 = complete control
# Summary of the method: as §2
# [19] = tested on: wheat (Triticum aestivum); experiment: as above; conditions: 10 days, 0 = no effect, 100 = complete control
# Summary of the method: as §2
# soybean (Glycine max) [20] = experiment: as above; conditions: 10 days, 0 = no effect, 100 = complete control
# Summary of the method: as §2
# corn (Zea mays) [21] = experiment: Test A postemergence application, visual injury rating 0-100; conditions: Postemergence, 10 days, 0 is no effect, 100 is complete control
# Summary of the method: as §2
# [22] = tested on: oat, wild (wild oat, Avena fatua); experiment: as above; conditions: Postemergence, 10 days, 0 is no effect, 100 is complete control
# Summary of the method: as §2
# [23] = tested on: wheat (Triticum aestivum); experiment: as above; conditions: Postemergence, 10 days, 0 is no effect, 100 is complete control
# Summary of the method: as §2
# [24] = tested on: ragweed (common ragweed, Ambrosia artemisiifolia); experiment: as above; conditions: Postemergence, 10 days, 0 is no effect, 100 is complete control
# Summary of the method: as §2
# soybean (Glycine max) [25] = experiment: as above; conditions: Postemergence, 10 days, 0 is no effect, 100 is complete control
# Summary of the method: as §2
# [26] = tested on: ryegrass, Italian (italian ryegrass, Lolium multiflorum); experiment: as above; conditions: Postemergence, 10 days, 0 is no effect, 100 is complete control
# Summary of the method: as §2
# [27] = tested on: palmer (palmer amaranth, palmer pigweed, Amaranthus palmeri); experiment: as above; conditions: Postemergence, 10 days, 0 is no effect, 100 is complete control
# Summary of the method: as §2
compound,measurement,setting,value
CC1(C(=O)NC2CC=C(C(=O)O)C2)CN(c2cc(F)cc(F)c2)C(=O)N1 (stereo not shown) [Compound 182],"Plant response rating, Rice (0 to 100 scale, 0 is no effect and 100 is complete control)",rice (Oryza sativa),15
same,"Plant response rating, Sedge, Umbrella (0 to 100 scale, 0 is no effect and 100 is complete control)",[1],70
same,"Plant response rating, Ducksalad (0 to 100 scale, 0 is no effect and 100 is complete control)",[2],60
same,"Plant response rating, Barnyardgrass (0 to 100 scale, 0 is no effect and 100 is complete control)",[3],20
same,Kochia plant response rating (0 to 100 scale),kochia (Bassia scoparia) [4]; 1000 g ai/ha,90
same,Ragweed plant response rating (0 to 100 scale),[5],30
same,"Foxtail, Green plant response rating (0 to 100 scale)",[6]; 1000 g ai/ha,100
same,"Ryegrass, Italian plant response rating (0 to 100 scale)",[7]; 1000 g ai/ha,90
same,Barnyardgrass plant response rating (0 to 100 scale),[8]; 1000 g ai/ha,80
same,Blackgrass plant response rating (0 to 100 scale),[9]; 1000 g ai/ha,90
same,"Amaranth, Palmer / Pigweed, Palmer plant response rating (0 to 100 scale)",[10]; 1000 g ai/ha,90
same,Kochia plant response rating,"kochia (Bassia scoparia) [11]; 1000 g ai/ha, 0 to 100 scale",80
same,Galium plant response rating,"[12]; 1000 g ai/ha, 0 to 100 scale",90
same,Horseweed plant response rating,"[13]; 1000 g ai/ha, 0 to 100 scale",80
same,"Foxtail, Green plant response rating","[14]; 1000 g ai/ha, 0 to 100 scale",90
same,Barnyardgrass plant response rating,"[15]; 1000 g ai/ha, 0 to 100 scale",90
same,Blackgrass plant response rating,"[16]; 1000 g ai/ha, 0 to 100 scale",90
CCCOC(=O)C1C=CC(NC(=O)C2(C)CN(c3cc(F)cc(F)c3)C(=O)O2)C1 (stereo not shown) [Compound 34],"Plant response rating, Rice (0 to 100 scale, 0 is no effect and 100 is complete control)",rice (Oryza sativa),10
same,"Plant response rating, Sedge, Umbrella (0 to 100 scale, 0 is no effect and 100 is complete control)",[1],75
same,"Plant response rating, Ducksalad (0 to 100 scale, 0 is no effect and 100 is complete control)",[2],75
same,"Plant response rating, Barnyardgrass (0 to 100 scale, 0 is no effect and 100 is complete control)",[3],90
same,Corn plant response rating (0 to 100 scale),corn (Zea mays) [17]; 125 g ai/ha,90
same,Corn plant response rating (0 to 100 scale),corn (Zea mays) [17]; 500 g ai/ha,100
same,Kochia plant response rating (0 to 100 scale),kochia (Bassia scoparia) [4]; 125 g ai/ha,90
same,Kochia plant response rating (0 to 100 scale),kochia (Bassia scoparia) [4]; 500 g ai/ha,90
same,"Oat, Wild plant response rating (0 to 100 scale)",[18]; 125 g ai/ha,90
same,"Oat, Wild plant response rating (0 to 100 scale)",[18]; 500 g ai/ha,90
same,Wheat plant response rating (0 to 100 scale),[19]; 125 g ai/ha,90
same,Wheat plant response rating (0 to 100 scale),[19]; 500 g ai/ha,100
same,Soybean plant response rating (0 to 100 scale),soybean (Glycine max) [20]; 125 g ai/ha,70
same,Soybean plant response rating (0 to 100 scale),soybean (Glycine max) [20]; 500 g ai/ha,80
same,"Foxtail, Green plant response rating (0 to 100 scale)",[6]; 125 g ai/ha,100
same,"Foxtail, Green plant response rating (0 to 100 scale)",[6]; 500 g ai/ha,100
same,"Ryegrass, Italian plant response rating (0 to 100 scale)",[7]; 125 g ai/ha,100
same,"Ryegrass, Italian plant response rating (0 to 100 scale)",[7]; 500 g ai/ha,100
same,Barnyardgrass plant response rating (0 to 100 scale),[8]; 125 g ai/ha,100
same,Barnyardgrass plant response rating (0 to 100 scale),[8]; 500 g ai/ha,100
same,Blackgrass plant response rating (0 to 100 scale),[9]; 125 g ai/ha,90
same,Blackgrass plant response rating (0 to 100 scale),[9]; 500 g ai/ha,100
same,"Amaranth, Palmer plant response rating (0 to 100 scale)",[10]; 125 g ai/ha,90
same,"Amaranth, Palmer plant response rating (0 to 100 scale)",[10]; 500 g ai/ha,100
same,Corn plant response rating (0 to 100 scale),corn (Zea mays) [21]; 125 g ai/ha,100
same,Corn plant response rating (0 to 100 scale),corn (Zea mays) [21]; 500 g ai/ha,100
same,Kochia plant response rating (0 to 100 scale),kochia (Bassia scoparia) [11]; 125 g ai/ha,70
same,Kochia plant response rating (0 to 100 scale),kochia (Bassia scoparia) [11]; 500 g ai/ha,70
same,Galium plant response rating (0 to 100 scale),[12]; 125 g ai/ha,80
same,Galium plant response rating (0 to 100 scale),[12]; 500 g ai/ha,80
same,"Oat, Wild plant response rating (0 to 100 scale)",[22]; 125 g ai/ha,100
same,"Oat, Wild plant response rating (0 to 100 scale)",[22]; 500 g ai/ha,100
same,Wheat plant response rating (0 to 100 scale),[23]; 125 g ai/ha,70
same,Wheat plant response rating (0 to 100 scale),[23]; 500 g ai/ha,80
same,Ragweed plant response rating (0 to 100 scale),[24]; 125 g ai/ha,70
same,Ragweed plant response rating (0 to 100 scale),[24]; 500 g ai/ha,80
same,Soybean plant response rating (0 to 100 scale),soybean (Glycine max) [25]; 125 g ai/ha,70
same,Soybean plant response rating (0 to 100 scale),soybean (Glycine max) [25]; 500 g ai/ha,80
same,Horseweed plant response rating (0 to 100 scale),[13]; 125 g ai/ha,90
same,Horseweed plant response rating (0 to 100 scale),[13]; 500 g ai/ha,90
same,"Foxtail, Green plant response rating (0 to 100 scale)",[14]; 125 g ai/ha,90
same,"Foxtail, Green plant response rating (0 to 100 scale)",[14]; 500 g ai/ha,90
same,"Ryegrass, Italian plant response rating (0 to 100 scale)",[26]; 125 g ai/ha,80
same,"Ryegrass, Italian plant response rating (0 to 100 scale)",[26]; 500 g ai/ha,90
same,Barnyardgrass plant response rating (0 to 100 scale),[15]; 125 g ai/ha,100
same,Barnyardgrass plant response rating (0 to 100 scale),[15]; 500 g ai/ha,100
same,Blackgrass plant response rating (0 to 100 scale),[16]; 125 g ai/ha,90
same,Blackgrass plant response rating (0 to 100 scale),[16]; 500 g ai/ha,100
same,"Amaranth, Palmer / Pigweed, Palmer plant response rating (0 to 100 scale)",[27]; 125 g ai/ha,80
same,"Amaranth, Palmer / Pigweed, Palmer plant response rating (0 to 100 scale)",[27]; 500 g ai/ha,100
